# What was measured:
# redroot pigweed [1] = experiment: Test Example 5: herbicidal effect by foliage application, plastic box (Table 20, symbol N); assay type: in vivo, redroot pigweed (Amaranthus retroflexus); conditions: foliage application, 320 g/ha, evaluated three weeks after application
# Method in brief: (§1)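 Sow seeds spot-wise in sterilized diluvial soil; cover with ~1.5 cm soil. Grow 14 days in greenhouse, 25° C. to 30° C. Spray foliage with emulsion diluted to predetermined amount. Rate effect after 3 weeks.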
# chickweed [2] = experiment: Test Example 5: herbicidal effect by foliage application, plastic box (Table 20, symbol P); assay type: in vivo, common chickweed (Stellaria media); conditions: foliage application, 320 g/ha, evaluated three weeks after application
# Method in brief: as §1
# southern crabgrass = experiment: Test Example 4: herbicidal effect by soil treatment (Table 19, symbol F); assay type: in vivo, southern crabgrass (Digitaria ciliaris); conditions: amount of applied herbicide 320 g/ha
# Method in brief: (§2)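 Applied as a water-diluted emulsion, the compound was sprayed onto soil covering newly sown seeds. Evaluation came three weeks after application, in a greenhouse held at 25° C. to 30° C.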
# lambsquarters = experiment: Test Example 4: herbicidal effect by soil treatment (Table 19, symbol O); assay type: in vivo, lambsquarters (Chenopodium album); conditions: amount of applied herbicide 320 g/ha
# Method in brief: as §2
# blackgrass = experiment: Test Example 5: herbicidal effect by foliage application, plastic box (Table 20, symbol J); assay type: in vivo, blackgrass (Alopecurus myosuroides); conditions: foliage application, 320 g/ha, evaluated three weeks after application
# Method in brief: as §1
# chickweed [3] = experiment: Test Example 4: herbicidal effect by soil treatment (Table 19, symbol P); assay type: in vivo, common chickweed (Stellaria media); conditions: amount of applied herbicide 320 g/ha
# Method in brief: as §2
# velvetleaf [4] = experiment: Test Example 5: herbicidal effect by foliage application, plastic box (Table 20, symbol M); assay type: in vivo, velvetleaf (Abutilon theophrasti); conditions: foliage application, 320 g/ha, evaluated three weeks after application
# Method in brief: as §1
# late watergrass = experiment: Test Example 2: herbicidal activity, application during weed generation under submerged conditions (Table 17, symbol A); assay type: in vivo, late watergrass (Echinochloa oryzicola); conditions: AAH 320 g/ha; application during weed generation, submerged conditions
# Method in brief: (§3)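 Wagner pot, alluvial soil, 4 cm flood; mixed sowing of all species; greenhouse 25° C.–30° C. Emulsifiable formulation, water-diluted to predetermined dose, applied to paddy water at 1–2 leaf stage. Effect rated at 3 wk using the earlier test's scoring criteria.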
# Italian ryegrass [5] = experiment: Test Example 4: herbicidal effect by soil treatment (Table 19, symbol K); assay type: in vivo, Italian ryegrass (Lolium multiflorum); conditions: amount of applied herbicide 320 g/ha
# Method in brief: as §2
# Italian ryegrass [6] = experiment: Test Example 5: herbicidal effect by foliage application, plastic box (Table 20, symbol K); assay type: in vivo, Italian ryegrass (Lolium multiflorum); conditions: foliage application, 320 g/ha, evaluated three weeks after application
# Method in brief: as §1
# wild oat [7] = experiment: Test Example 4: herbicidal effect by soil treatment (Table 19, symbol I); assay type: in vivo, wild oat (Avena fatua); conditions: amount of applied herbicide 320 g/ha
# Method in brief: as §2
# green foxtail [8] = experiment: Test Example 4: herbicidal effect by soil treatment (Table 19, symbol G); assay type: in vivo, green foxtail (Setaria viridis); conditions: amount of applied herbicide 320 g/ha
# Method in brief: as §2
# Japanese bulrush = experiment: Test Example 2: herbicidal activity, application during weed generation under submerged conditions (Table 17, symbol B); assay type: in vivo, Japanese bulrush (Schoenoplectus juncoides); conditions: AAH 320 g/ha; application during weed generation, submerged conditions
# Method in brief: as §3
# windgrass = experiment: Test Example 5: herbicidal effect by foliage application, plastic box (Table 20, symbol L); assay type: in vivo, windgrass (Apera spica-venti); conditions: foliage application, 320 g/ha, evaluated three weeks after application
# Method in brief: as §1
# velvetleaf [9] = experiment: Test Example 4: herbicidal effect by soil treatment (Table 19, symbol M); assay type: in vivo, velvetleaf (Abutilon theophrasti); conditions: amount of applied herbicide 320 g/ha
# Method in brief: as §2
# green foxtail [10] = experiment: Test Example 5: herbicidal effect by foliage application, plastic box (Table 20, symbol G); assay type: in vivo, green foxtail (Setaria viridis); conditions: foliage application, 320 g/ha, evaluated three weeks after application
# Method in brief: as §1
# barnyard grass [11] = experiment: Test Example 4: herbicidal effect by soil treatment (Table 19, symbol H); assay type: in vivo, barnyard grass (Echinochloa crus-galli); conditions: amount of applied herbicide 320 g/ha
# Method in brief: as §2
# rice flat sedge = experiment: Test Example 3: herbicidal effect by foliage application, Wagner pot (Table 18, symbol E); assay type: in vivo, rice flat sedge (Cyperus iria); conditions: for herbicidal effect on E: rice flat sedge: amount of applied herbicide 320 g/ha
# Method in brief: (§4)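 Plants were sown in alluvial soil held under 0.1–0.5 cm standing water and grown 14 days in a greenhouse at 25–30 °C. An emulsifiable formulation, water-diluted to the set dose, was then sprayed onto the foliage, and effects were scored three weeks later using previously defined criteria.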
# wild oat [12] = experiment: Test Example 5: herbicidal effect by foliage application, plastic box (Table 20, symbol I); assay type: in vivo, wild oat (Avena fatua); conditions: foliage application, 320 g/ha, evaluated three weeks after application
# Method in brief: as §1
# barnyard grass [13] = experiment: Test Example 3: herbicidal effect by foliage application, Wagner pot (Table 18, symbol H); assay type: in vivo, barnyard grass (Echinochloa crus-galli); conditions: for herbicidal effect on H: barnyard grass: amount of applied herbicide 320 g/ha
# Method in brief: as §4
# redroot pigweed [14] = experiment: Test Example 4: herbicidal effect by soil treatment (Table 19, symbol N); assay type: in vivo, redroot pigweed (Amaranthus retroflexus); conditions: amount of applied herbicide 320 g/ha
# Method in brief: as §2
# persian speedwell = experiment: Test Example 5: herbicidal effect by foliage application, plastic box (Table 20, symbol R); assay type: in vivo, Persian speedwell (Veronica persica); conditions: foliage application, 320 g/ha, evaluated three weeks after application
# Method in brief: as §1
Compound,herbicidal effect on N: redroot pigweed (redroot pigweed [1]),herbicidal effect on P: chickweed (chickweed [2]),"F: southern crabgrass, herbicidal effect rating (southern crabgrass)","O: lambsquarters, herbicidal effect rating (lambsquarters)",herbicidal effect on J: blackgrass (blackgrass),"P: chickweed, herbicidal effect rating (chickweed [3])",herbicidal effect on M: velvetleaf (velvetleaf [4]),"herbicidal effect rating, A: late watergrass (late watergrass)","K: Italian ryegrass, herbicidal effect rating (Italian ryegrass [5])",herbicidal effect on K: Italian ryegrass (Italian ryegrass [6]),"I: wild oat, herbicidal effect rating (wild oat [7])","G: green foxtail, herbicidal effect rating (green foxtail [8])","herbicidal effect rating, B: Japanese bulrush (Japanese bulrush)",herbicidal effect on L: windgrass (windgrass),"M: velvetleaf, herbicidal effect rating (velvetleaf [9])",herbicidal effect on G: green foxtail (green foxtail [10]),"H: barnyard grass, herbicidal effect rating (barnyard grass [11])",herbicidal effect on I: wild oat (wild oat [12]),"N: redroot pigweed, herbicidal effect rating (redroot pigweed [14])",herbicidal effect on R: persian speedwell (persian speedwell),other results
COc1ccccc1-c1sc2ccc(Cl)cc2c1-c1c(O)c(C)nn(C)c1=O [2-101],5 (Herbicidal rate of 90% or more (almost completely withered)),5 (Herbicidal rate of 90% or more (almost completely withered)),3 (Herbicidal rate of 40% or more and less than 70%),4 (Herbicidal rate of 70% or more and less than 90%),5 (Herbicidal rate of 90% or more (almost completely withered)),5 (Herbicidal rate of 90% or more (almost completely withered)),5 (Herbicidal rate of 90% or more (almost completely withered)),0 (Herbicidal rate of 5% or less (almost no effect)),3 (Herbicidal rate of 40% or more and less than 70%),4 (Herbicidal rate of 70% or more and less than 90%),0 (Herbicidal rate of 5% or less (almost no effect)),2 (Herbicidal rate of 20% or more and less than 40%),3 (Herbicidal rate of 40% or more and less than 70%),4 (Herbicidal rate of 70% or more and less than 90%),3 (Herbicidal rate of 40% or more and less than 70%),3 (Herbicidal rate of 40% or more and less than 70%),3 (Herbicidal rate of 40% or more and less than 70%),3 (Herbicidal rate of 40% or more and less than 70%),5 (Herbicidal rate of 90% or more (almost completely withered)),5 (Herbicidal rate of 90% or more (almost completely withered)),"herbicidal effect on E (rice flat sedge), rating 0-5 (rice flat sedge; 320 g/ha): 5 (Herbicidal rate of 90% or more (almost completely withered)); herbicidal effect on H (barnyard grass), rating 0-5 (barnyard grass [13]; 320 g/ha): 4 (Herbicidal rate of 70% or more and less than 90%)"
Cc1nn(C)c(=O)c(-c2c(-c3ccc(C#N)cc3)sc3ccc(Cl)cc23)c1O [2-112],5 (Herbicidal rate of 90% or more (almost completely withered)),5 (Herbicidal rate of 90% or more (almost completely withered)),3 (Herbicidal rate of 40% or more and less than 70%),5 (Herbicidal rate of 90% or more (almost completely withered)),5 (Herbicidal rate of 90% or more (almost completely withered)),5 (Herbicidal rate of 90% or more (almost completely withered)),4 (Herbicidal rate of 70% or more and less than 90%),3 (Herbicidal rate of 40% or more and less than 70%),5 (Herbicidal rate of 90% or more (almost completely withered)),5 (Herbicidal rate of 90% or more (almost completely withered)),0 (Herbicidal rate of 5% or less (almost no effect)),0 (Herbicidal rate of 5% or less (almost no effect)),0 (Herbicidal rate of 5% or less (almost no effect)),5 (Herbicidal rate of 90% or more (almost completely withered)),4 (Herbicidal rate of 70% or more and less than 90%),4 (Herbicidal rate of 70% or more and less than 90%),0 (Herbicidal rate of 5% or less (almost no effect)),5 (Herbicidal rate of 90% or more (almost completely withered)),5 (Herbicidal rate of 90% or more (almost completely withered)),5 (Herbicidal rate of 90% or more (almost completely withered)),herbicidal effect on E: rice flat sedge (rice flat sedge): 5 (Herbicidal rate of 90% or more (almost completely withered)); herbicidal effect on H: barnyard grass (barnyard grass [13]): 5 (Herbicidal rate of 90% or more (almost completely withered))
CCCC(=O)Oc1c(C)nn(C)c(=O)c1-c1c(-c2cccc(F)c2)sc2ccc(F)cc12 [2-202],–,–,2 (Herbicidal rate of 20% or more and less than 40%),5 (Herbicidal rate of 90% or more (almost completely withered)),–,4 (Herbicidal rate of 70% or more and less than 90%),–,4 (Herbicidal rate of 70% or more and less than 90%),1 (Herbicidal rate of 5% or more and less than 20%),–,0 (Herbicidal rate of 5% or less (almost no effect)),3 (Herbicidal rate of 40% or more and less than 70%),3 (Herbicidal rate of 40% or more and less than 70%),–,0 (Herbicidal rate of 5% or less (almost no effect)),–,4 (Herbicidal rate of 70% or more and less than 90%),–,5 (Herbicidal rate of 90% or more (almost completely withered)),–,herbicidal effect on N: redroot pigweed (criteria 0-5) (redroot pigweed [1]): 5 (Herbicidal rate of 90% or more (almost completely withered)); herbicidal effect on P: chickweed (criteria 0-5) (chickweed [2]): 5 (Herbicidal rate of 90% or more (almost completely withered)); herbicidal effect on J: blackgrass (criteria 0-5) (blackgrass): 1 (Herbicidal rate of 5% or more and less than 20%); herbicidal effect on M: velvetleaf (criteria 0-5) (velvetleaf [4]): 5 (Herbicidal rate of 90% or more (almost completely withered)); herbicidal effect on K: Italian ryegrass (criteria 0-5) (Italian ryegrass [6]): 3 (Herbicidal rate of 40% or more and less than 70%); herbicidal effect on L: windgrass (criteria 0-5) (windgrass): 2 (Herbicidal rate of 20% or more and less than 40%); herbicidal effect on G: green foxtail (criteria 0-5) (green foxtail [10]): 4 (Herbicidal rate of 70% or more and less than 90%); herbicidal effect on E: rice flat sedge (rice flat sedge): 5 (Herbicidal rate of 90% or more (almost completely withered)); herbicidal effect on I: wild oat (criteria 0-5) (wild oat [12]): 1 (Herbicidal rate of 5% or more and less than 20%); herbicidal effect on H: barnyard grass (barnyard grass [13]): 5 (Herbicidal rate of 90% or more (almost completely withered)); herbicidal effect on R: persian speedwell (criteria 0-5) (persian speedwell): 4 (Herbicidal rate of 70% or more and less than 90%)

# Reference: patent US20230085307A1, “PYRIDAZINONE COMPOUND AND HERBICIDE” (NISSAN CHEMICAL CORPORATION, priority 2019, published 2023)
